{
  "source": "ChEMBL document CHEMBL3272295",
  "about": "“Drugs derived from cannabinoids. 5. delta6a,10a-Tetrahydrocannabinol and heterocyclic analogs containing aromatic side chains” (J Med Chem, 1976)",
  "key": {"Mus musculus [1]": {"test_system": "Mus musculus", "experiment": "Analgesic activity in mouse assessed as inhibition of acetic acid-induced writhing at 16 mg/kg, po administered 30 mins prior to acetic acid challenge measured after 5 mins for 20 mins", "assay_type": "functional"}, "Mus musculus [2]": {"test_system": "Mus musculus", "experiment": "Increase in footshock-induced fighting behavior in albino BALB/cJ mouse at 10 mg/kg, po after 30 to 90 mins", "assay_type": "functional"}, "Rattus norvegicus [3]": {"species_on_record": "Rattus norvegicus", "experiment": "animal or person", "assay_type": "functional", "details": "Charles River, route oral", "description": "Antidiarrheal activity in Charles River rat assessed as inhibition of castor oil-induced diarrhea by measuring protected animals at 0.5 mg/kg, po administered 1 hr prior to castor oil challenge measured after 1 hr relative to vehicle-treated control"}, "Rattus norvegicus [4]": {"test_system": "Rattus norvegicus", "experiment": "Antianxiety activity in Long-Evans rat assessed as reduction in motor activity at 5 mg/kg, po after 2 hrs relative to vehicle-treated control", "assay_type": "functional", "set-up": "scale not given: the % may be the effect or the level left"}, "Rattus norvegicus [5]": {"test_system": "Rattus norvegicus", "experiment": "Antipsychotic activity in rat assessed as reduction of methamphetamine-induced hyperactivity at 5 mg/kg, po administered prior to methamphetamine challenge relative to vehicle-treated control", "assay_type": "functional", "set-up": "scale not given: the % may be the effect or the level left"}, "[6]": {"experiment": "Acute toxicity in po dosed mouse", "assay_type": "organism-based", "details": "in vivo"}, "Mus musculus [7]": {"test_system": "Mus musculus", "experiment": "Antianxiety activity in albino BALB/cJ mouse assessed as reduction in footshock-induced fighting behavior at 5 mg/kg, po after 30 to 90 mins", "assay_type": "functional", "set-up": "scale not given: the % may be the effect or the level left"}, "Rattus norvegicus [8]": {"test_system": "Rattus norvegicus", "experiment": "Antihypertensive activity in spontaneously hypertensive rat model assessed as reduction in blood pressure at 1 mg/kg, po after 24 hrs", "assay_type": "functional", "set-up": "scale not given: the % may be the effect or the level left"}, "Rattus norvegicus [9]": {"test_system": "Rattus norvegicus", "experiment": "Antianxiety activity in Long-Evans rat assessed as reduction in motor activity at 2 mg/kg, po after 2 hrs relative to vehicle-treated control", "assay_type": "functional", "set-up": "scale not given: the % may be the effect or the level left"}, "Mus musculus [10]": {"test_system": "Mus musculus", "experiment": "Antidepressant activity in po dosed mouse assessed as potentiation of DOPA-induced effect administered 4 hrs prior to DOPA challenge", "assay_type": "functional", "details": "read-out: MED"}, "Rattus norvegicus [11]": {"test_system": "Rattus norvegicus", "experiment": "Antihypertensive activity in spontaneously hypertensive rat model assessed as reduction in blood pressure at 3 mg/kg, po after 3 hrs", "assay_type": "functional", "set-up": "scale not given: the % may be the effect or the level left"}, "Rattus norvegicus [12]": {"test_system": "Rattus norvegicus", "experiment": "Analgesic activity in Sprague-Dawley rat assessed as increase in pain threshold at 10 mg/kg, po after 15 to 90 mins by tail flick test", "assay_type": "functional"}, "Mus musculus [13]": {"test_system": "Mus musculus", "experiment": "Analgesic activity in po dosed mouse assessed as inhibition of acetic acid-induced writhing administered 30 mins prior to acetic acid challenge measured after 5 mins for 20 mins", "assay_type": "functional"}, "Rattus norvegicus [14]": {"test_system": "Rattus norvegicus", "experiment": "Antihypertensive activity in spontaneously hypertensive rat model assessed as reduction in blood pressure at 3 mg/kg, po after 24 hrs", "assay_type": "functional", "set-up": "scale not given: the % may be the effect or the level left"}, "Rattus norvegicus [15]": {"test_system": "Rattus norvegicus", "experiment": "Antihypertensive activity in spontaneously hypertensive rat model assessed as reduction in blood pressure at 1 mg/kg, po after 3 hrs", "assay_type": "functional", "set-up": "scale not given: the % may be the effect or the level left"}, "Mus musculus [16]": {"test_system": "Mus musculus", "experiment": "Antianxiety activity in albino BALB/cJ mouse assessed as reduction in footshock-induced fighting behavior at 10 mg/kg, po after 30 to 90 mins", "assay_type": "functional", "set-up": "scale not given: the % may be the effect or the level left"}, "Mus musculus [17]": {"test_system": "Mus musculus", "experiment": "Anticonvulsant activity in po dosed mouse assessed as dose required to protect 80% of animal measured after 1 to 4 hrs by audiogenic seizure test", "assay_type": "functional"}, "Rattus norvegicus [18]": {"test_system": "Rattus norvegicus", "experiment": "Antipsychotic activity in rat assessed as reduction of methamphetamine-induced hyperactivity at 2.5 mg/kg, po administered prior to methamphetamine challenge relative to vehicle-treated control", "assay_type": "functional", "set-up": "scale not given: the % may be the effect or the level left"}, "Rhesus monkey": {"test_system": "Rhesus monkey", "experiment": "Antianxiety activity in po dosed rhesus monkey assessed as antiagressive behavior measured every hour post dosing", "assay_type": "functional", "details": "Macaca mulatta, read-out: MED"}, "Rattus norvegicus [19]": {"test_system": "Rattus norvegicus", "experiment": "Antianxiety activity in Long-Evans rat assessed as reduction in motor activity at 1.25 mg/kg, po after 2 hrs relative to vehicle-treated control", "assay_type": "functional", "set-up": "scale not given: the % may be the effect or the level left"}, "Rattus norvegicus [20]": {"test_system": "Rattus norvegicus", "experiment": "Analgesic activity in po dosed Sprague-Dawley rat after 15 to 90 mins by tail flick test", "assay_type": "functional"}, "Rattus norvegicus [21]": {"test_system": "Rattus norvegicus", "experiment": "Antianxiety activity in Long-Evans rat assessed as reduction in motor activity at 40 mg/kg, po after 2 hrs relative to vehicle-treated control", "assay_type": "functional", "set-up": "scale not given: the % may be the effect or the level left"}, "Rattus norvegicus [22]": {"test_system": "Rattus norvegicus", "experiment": "Antipsychotic activity in rat assessed as reduction of methamphetamine-induced hyperactivity at 1 mg/kg, po administered prior to methamphetamine challenge relative to vehicle-treated control", "assay_type": "functional", "set-up": "scale not given: the % may be the effect or the level left"}, "Mus musculus [23]": {"test_system": "Mus musculus", "experiment": "Analgesic activity in mouse assessed as inhibition of acetic acid-induced writhing at 20 mg/kg, po administered 30 mins prior to acetic acid challenge measured after 5 mins for 20 mins", "assay_type": "functional"}},
  "note": "Calls of active or inactive are those of the source.",
  "data": [
    {"smiles": "C#CCN1CCC2=C(C1)c1c(O)cc(C(C)CCCc3ccc(C)cc3)cc1OC2(C)C", "note": "(stereo not given)", "values": [
      {"measurement": "inhibition in vivo at 16 mg/kg", "setting": "Mus musculus [1]", "value": 32, "unit": "%"},
      {"measurement": "Activity", "setting": "Mus musculus [2]", "value": 17, "unit": "%"},
      {"measurement": "inhibition in vivo at 0.5 mg/kg", "setting": "Rattus norvegicus [3]", "value": 0, "unit": "%"},
      {"measurement": "Activity", "setting": "Rattus norvegicus [4]", "value": 24, "unit": "%"},
      {"measurement": "Activity", "setting": "Rattus norvegicus [5]", "value": 46, "unit": "%"},
      {"measurement": "LD50", "setting": "[6]", "value": "≥ 1000", "unit": "mg/kg"}
    ]},
    {"smiles": "CC1CCC2=C(C1)c1c(O)cc(C(C)C(C)CCc3ccncc3)cc1OC2(C)C", "note": "(stereo not given)", "values": [
      {"measurement": "Activity", "setting": "Mus musculus [7]", "value": 0, "unit": "%"},
      {"measurement": "Activity", "setting": "Rattus norvegicus [8]", "value": 15, "unit": "%"},
      {"measurement": "Activity", "setting": "Rattus norvegicus [9]", "value": 28, "unit": "%"},
      {"measurement": "minimal effective dose", "setting": "Mus musculus [10]", "value": 20, "unit": "mg/kg"},
      {"measurement": "Activity", "setting": "Rattus norvegicus [11]", "value": 19, "unit": "%"},
      {"measurement": "inhibition in vivo at 0.5 mg/kg", "setting": "Rattus norvegicus [3]", "value": 90, "unit": "%"},
      {"measurement": "Activity", "setting": "Rattus norvegicus [12]", "value": 58, "unit": "%"},
      {"measurement": "Activity", "setting": "Rattus norvegicus [4]", "value": 42, "unit": "%"},
      {"measurement": "Activity", "setting": "Rattus norvegicus [5]", "value": 13, "unit": "%"},
      {"measurement": "ED50", "setting": "Mus musculus [13]", "value": 4.7, "unit": "mg/kg"},
      {"measurement": "Activity", "setting": "Rattus norvegicus [14]", "value": 7, "unit": "%"},
      {"measurement": "LD50", "setting": "[6]", "value": "≥ 1000", "unit": "mg/kg"},
      {"measurement": "Activity", "setting": "Rattus norvegicus [15]", "value": 13, "unit": "%"}
    ]},
    {"smiles": "CCCCCC(C)C(C)c1cc(O)c2c(c1)OC(C)(C)C1CC=C(C)CC21", "note": "(stereo not given)", "values": [
      {"measurement": "Activity", "setting": "Mus musculus [16]", "value": 89, "unit": "%"},
      {"measurement": "Activity", "setting": "Mus musculus [17]", "value": "inactive"},
      {"measurement": "minimal effective dose", "setting": "Mus musculus [10]", "value": 20, "unit": "mg/kg"},
      {"measurement": "Activity", "setting": "Rattus norvegicus [5]", "value": 81, "unit": "%"},
      {"measurement": "ED50", "setting": "Mus musculus [13]", "value": 7.9, "unit": "mg/kg"},
      {"measurement": "Activity", "setting": "Rattus norvegicus [18]", "value": 52, "unit": "%"},
      {"measurement": "LD50", "setting": "[6]", "value": "≥ 1000", "unit": "mg/kg"},
      {"measurement": "minimal effective dose", "setting": "Rhesus monkey", "value": 1, "unit": "mg/kg"},
      {"measurement": "Activity", "setting": "Rattus norvegicus [19]", "value": 60, "unit": "%"}
    ]},
    {"smiles": "C#CCN1CCC2=C(C1)c1c(OC(C)=O)cc(C(C)CCCc3ccc(F)cc3)cc1OC2(C)C", "note": "(stereo not given)", "values": [
      {"measurement": "ED50", "setting": "Rattus norvegicus [20]", "value": 1, "unit": "mg/kg"},
      {"measurement": "Activity", "setting": "Rattus norvegicus [21]", "value": 90, "unit": "%"},
      {"measurement": "Activity", "setting": "Rattus norvegicus [22]", "value": 30, "unit": "%"},
      {"measurement": "Activity", "setting": "Rattus norvegicus [4]", "value": 57, "unit": "%"},
      {"measurement": "inhibition in vivo at 20 mg/kg", "setting": "Mus musculus [23]", "value": 27, "unit": "%"},
      {"measurement": "Activity", "setting": "Rattus norvegicus [5]", "value": 66, "unit": "%"},
      {"measurement": "LD50", "setting": "[6]", "value": "≥ 1000", "unit": "mg/kg"}
    ]}
  ]
}
